The values below come from ChEMBL document CHEMBL3108664, “Macrocyclic drugs and clinical candidates: what can medicinal chemists learn from their properties?” (J Med Chem, 2014).

The term bioavailability denotes the share of a dose that reaches the circulation, judged against a reference dose that is usually intravenous. Lower therefore signals poor availability. A word on the half-life: it is how long it takes for the measured level to halve. A high value points to slow decline. One may read the Papp A→B as how fast a substance crosses the layer from the apical side.

Data set [1] is described as follows: Oral bioavailability in human. The class given is ADME, organism-based. Particulars: in vivo.
A short description of data set [2]: Oral bioavailability in dog at 1 mg/kg. The class given is ADME, organism-based, Canis lupus familiaris. The note with it: in vivo.
Data set [3] can be described thus: Oral bioavailability in rat at 5 mg/kg. The class given is ADME, organism-based. Particulars: in vivo.
Data set [4] is described as follows: Oral bioavailability in mouse administered as bid. The note with it: in vivo. Format: ADME, organism-based.
Data set [5] in a line: Half life in human at 25 mg, po administered through fat rich diet. Format: ADME, organism-based. Particulars: in vivo.
The nature of data set [6]: Oral bioavailability in cancer patient at 75 mg, qd administered 5 days for every 2 weeks. The class given is ADME, organism-based. The note with it: human, in vivo.
The nature of data set [7]: Apparent permeability across apical to basolateral side of human Caco2 cells at 5 uM after 120 mins by LC/MS/MS analysis. Particulars: Caco-2. Format: ADME, cell-based.
For another data set, the system named is Homo sapiens. In words: Oral bioavailability in human at 3 to 15 mg/day. Format: ADME, organism-based. The note with it: in vivo.

In data set [1], `CO[C@H]1C[C@@H]2CC[C@@H](C)[C@@](O)(O2)C(=O)C(=O)N2CCCC[C@H]2C(=O)O[C@H]([C@H](C)C[C@@H]2CC[C@@H](OCCO)[C@H](OC)C2)CC(=O)[C@H](C)/C=C(\C)[C@@H](O)[C@@H](OC)C(=O)[C@H](C)C[C@H](C)/C=C/C=C/C=C/1C` [EVEROLIMUS] gave a bioavailability of 20%.
With `C=C[C@@H]1C[C@]1(NC(=O)[C@@H]1C[C@@H]2CN1C(=O)[C@H](C(C)(C)C)NC(=O)O[C@@H]1C[C@H]1CCCCCc1nc3ccc(OC)cc3nc1O2)C(=O)NS(=O)(=O)C1CC1` [GRAZOPREVIR ANHYDROUS], the bioavailability came out at 13% in data set [2] and 1% in data set [3].
In data set [4], `COc1cc2ncnc3c2cc1OCCCCCN(C)Cc1ccc(Br)cc1N3` [JNJ-26483327] returned a bioavailability of 80%.
For the molecule `CO[C@H]1/C=C/O[C@@]2(C)Oc3c(C)c(O)c4c(=O)c(c5oc6cc(N7CCN(CC(C)C)CC7)cc(O)c6nc-5c4c3C2=O)NC(=O)/C(C)=C\C=C\[C@H](C)[C@H](O)[C@@H](C)[C@@H](O)[C@@H](C)[C@H](OC(C)=O)[C@@H]1C` [RIFALAZIL], the half-life in data set [5] is 100 h.
`CO[C@H]1/C=C/O[C@@]2(C)Oc3c(C)c(O)c4c(O)c(c(/C=N/N5CCN(C)CC5)c(O)c4c3C2=O)NC(=O)/C(C)=C\C=C\[C@H](C)[C@H](O)[C@@H](C)[C@@H](O)[C@@H](C)[C@H](OC(C)=O)[C@@H]1C` [RIFAMPIN]: the bioavailability in data set [1] worked out at 50%.
Still for that read-out and setting: with `CO[C@H]1/C=C/O[C@@]2(C)Oc3c(C)c(O)c4c(O)c(c(/C=N/N5CCN(C6CCCC6)CC5)c(O)c4c3C2=O)NC(=O)/C(C)=C\C=C\[C@H](C)[C@H](O)[C@@H](C)[C@@H](O)[C@@H](C)[C@H](OC(C)=O)[C@@H]1C` [RIFAPENTINE] the figure was 70%.
Still for that read-out and setting: with `C=CC[C@@H]1/C=C(\C)C[C@H](C)C[C@H](OC)[C@H]2O[C@@](O)(C(=O)C(=O)N3CCCC[C@H]3C(=O)O[C@H](/C(C)=C/[C@@H]3CC[C@@H](O)[C@H](OC)C3)[C@H](C)[C@@H](O)CC1=O)[C@H](C)C[C@@H]2OC` [TACROLIMUS ANHYDROUS] the figure was 15%.
`CO[C@H]1C[C@@H]2CC[C@@H](C)[C@@](O)(O2)C(=O)C(=O)N2CCCC[C@H]2C(=O)O[C@H]([C@H](C)C[C@@H]2CC[C@@H](OC(=O)C(C)(CO)CO)[C@H](OC)C2)CC(=O)[C@H](C)/C=C(\C)[C@@H](O)[C@@H](OC)C(=O)[C@H](C)C[C@H](C)/C=C/C=C/C=C/1C` [TEMSIROLIMUS]: the bioavailability in data set [6] is 1.5%.
With `CN1C/C=C/CCOc2cccc(c2)-c2ccnc(n2)Nc2cccc(c2)C1` [ZOTIRACICLIB], the Papp A→B at 2 h, 5 µM in data set [7] worked out at 28 ×10⁻⁶ cm/s.
IVERMECTIN: in the data set on Homo sapiens, the F was found to be 60%.
